From patent publication US11572344B2, “Cyanoaryl-aniline compounds for treatment of dermal disorders” (NFlection Therapeutics, Inc., priority 2018, dated 2023) come the findings set out here.

Each structure is given as a SMILES string. Where only a bound is given, the exact number is not on record here.

In experiment [1] the target is MEK1 (Homo sapiens (Human), UniProt Q02750). In words: MEK Inhibition Assay-2 (Z′-LYTE biochemical assay). The conditions noted are these: Z′-LYTE assay of Example 39; read-out: IC50 against MEK1. Here is the method:
MEK1 inhibitory activity of compounds were tested using the following procedure (protocol available at thermofisher.com/content/dam/LifeTech/migration/files/drug-discovery/pdfs.par.60256.file.dat/20130430%20ssbk %20customer %20protocol %20and %20assa y %20conditions.pdf). The Z′-LYTE biochemical assay (ThermoFisher) employs a fluorescence-based, coupled-enzyme format and is based on the differential sensitivity of phosphorylated and non-phosphorylated peptides to proteolytic cleavage.
Test compounds in 100% DMSO were screened in 1% DMSO (final) in the well. For 10 point titrations, 3-fold serial dilutions are conducted from the starting concentration of 30 μM.
After the 1 hour incubation, 5 μL of a 1:1024 dilution of Development Reagent A (available from Invitrogen, catalog no. PV3295) was added.
ATP solutions were diluted to a 4× working concentration in Kinase Buffer (50 mM HEPES pH 7.5, 0.01% BRIJ-35, 10 mM MgCl2, 1 mM EGTA). ATP Km apparent was previously determined using a Z′-LYTE assay. The Development Reagent was diluted in Development Buffer (available from Invitrogen, catalog no. P3127).
Assay Protocol: 2.5 μL of 4× test compound or 100 nL of 100× Test Compound plus 2.4 μL Kinase Buffer, 5 μL of the 2× Peptide/Kinase Mixture, 2.5 μL of 4×ATP Solution were added to the plates and placed on a shake plate for 30-seconds. The kinase reaction was allowed to proceed for 60-minute at room temperature, before 5 μL of Development Reagent Solution was added, and the mixture agitated for 30-seconds on a shake plate. The mixture was incubated for 60-minute at room temperature. Fluorescence was measured using a plate reader and the data were analyzed.
This control yielded 100% cleaved peptide in the Development Reaction. The 100% Phosphorylation Control, which consisted of a synthetically phosphorylated peptide of the same sequence as the peptide substrate, was designed to allow for the calculation of percent phosphorylation. This control yielded a very low percentage of cleaved peptide in the Development Reaction. The 0% Phosphorylation and 100% Phosphorylation Controls allow for the calculation of the percent phosphorylation achieved in a specific reaction well.
The minimum emission ratio in a screen was established by the 0% Inhibition Control, which contained active kinase. This control was designed to produce a 10-50% phosphorylated peptide in the Kinase Reaction. Cascade assays may produce up to 70% phosphorylated peptide.
A known inhibitor control standard curve, 10 point titration, was run for each individual kinase on the same plate as the kinase to ensure the kinase was inhibited within an expected IC50 range previously determined.
The following controls are prepared for each concentration of Test Compound assayed. […] The expected value for a non-interfering compound should be 100%. Any value outside of 90% to 110% was flagged. […] The expected value for a non-fluorescence compound should be 0%. Any value>20% was flagged.
The data in Table A was calculated. XLfit from IDBS was used. The dose response curve was curve fit to model number 205 (sigmoidal dose-response model).
Table 3 lists the MEK1 inhibition assay results of selected compounds according to the above procedure.

Experiment [2] relates to pERK in human cutaneous neurofibroma explants. The experiment in a line: Human cutaneous neurofibroma explant pERK suppression (Western blot). Type of experiment: cell-based. Here is the method:
Explant Protocol: Human cutaneous neurofibroma explant samples were collected in DMEM/F-12 (Thermo Fisher, Cat #11320033) supplemented with 1×B27 supplement (Thermo Fisher, Cat #17504044), 2.5 μg/ml of Amphotericin B (Thermo Fisher, Cat #15290018), and 50 units/ml of Penicillin-50 μg/ml of Streptomycin (Thermo Fisher, Cat #15070063) and incubated in the same medium for subsequent treatment. The specimen was cut into small cubes containing both the epidermis and dermis. The tissues were partially submerged in the medium in 384-well plate with the epidermis exposed to the air.
The tissues were fully submerged in the medium in 48-well plate and 5 μl of compounds dissolved in DMSO were added to 200 μl of the medium in each well. After 4 h incubation at 37° C. and 5% CO2, the tissues were harvested and half of the specimen was flash frozen in liquid nitrogen for Western Blot analysis. The other half of the specimen was fixed for 24 hours in 10% formalin and then transferred to 70% ethanol for […].
Skin samples were thawed on ice and weighed. 10 volume (10 μl for each mg of tissue) of lysis buffer (RIPA buffer+0.5 mM EDTA+1×Halt protease and phosphatase inhibitor cocktail) was then added to each sample. […]
Western Blot analysis: The lysate was thawed on ice and protein concentration was determined by the BCA protein assay kit using bovine serum albumin (BSA) as standards. […]

Sequence of MEK1 (Q02750 whole entry): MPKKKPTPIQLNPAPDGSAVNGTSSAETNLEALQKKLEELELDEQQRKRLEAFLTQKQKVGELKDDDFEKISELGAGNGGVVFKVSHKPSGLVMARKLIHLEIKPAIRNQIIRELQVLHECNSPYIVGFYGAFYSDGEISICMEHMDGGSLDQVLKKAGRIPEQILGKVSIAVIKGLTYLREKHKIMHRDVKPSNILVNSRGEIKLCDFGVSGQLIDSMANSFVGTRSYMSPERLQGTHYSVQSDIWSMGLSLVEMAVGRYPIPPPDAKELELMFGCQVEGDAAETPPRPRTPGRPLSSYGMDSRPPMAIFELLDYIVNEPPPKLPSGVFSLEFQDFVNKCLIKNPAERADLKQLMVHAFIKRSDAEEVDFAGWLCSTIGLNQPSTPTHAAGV

For `N#Cc1ccc(C(=O)NOCC2CC2)c(Nc2ccc(I)cc2F)c1F` [Compound 1.031], the IC50 in experiment [1] was at most 0.15 µM. The same measure, in the same setting: for `N#Cc1ccc(C(=O)NOCCO)c(Nc2ccc(I)cc2F)c1` [Compound 1.010] the value was at most 0.15 µM. As to `N#Cc1ccc(C(=O)NOCCO)c(Nc2ccc(I)cc2F)c1F` [Compound 1.030, 4-cyano-3-fluoro-2-((2-fluoro-4-iodophenyl)amino)-N-(2-hydroxyethoxy) benzamide], the IC50 in experiment [1] was at most 0.15 µM. Further, the “suppression of pERK in human cutaneous neurofibroma (cNF) explants” value in experiment [2] (concentration of 500 nM (FIG. 5)) is “suppression of pERK”; in experiment [2] (treatment for 4 hours at 5 nM, 50 nM, and 500 nM (FIG. 4)), “suppression of pERK”.
